Measurements reported in patent US20040072842A1 (published 2004).

Row | melting point [°C] | SMILES
1 | 151 to 152 | O=C(CO)N1CCC(c2ccc(N3C[C@H](CNC(=S)C(F)F)OC3=O)cc2F)CC1
2 | 166 to 168 | O=C(COCc1ccccc1)N1CCN(c2ccc(N3C[C@H](CNC(=S)C(F)F)OC3=O)cc2)CC1
